Several values for one entry are separate records, joined by “and”; a condition that tells them apart may be missing. Identical values can stand only once. Where a SMILES comes first, the peptide text is derived from it. [ ]: non-standard residue; d: D form. NMeL = CN[C@@H](CC(C)C)C(=O)O; dNMeL = CN[C@H](CC(C)C)C(=O)O; NMeA = CN[C@@H](C)C(=O)O; dNMeA = CN[C@H](C)C(=O)O
Columns and labels:
[1] = PAMPA, PAMPA_Papp_Avg (apparent permeability)
[2] = Pharmacokinetics of D10.1 after PO, SQ and IV dosing in mice
[3] = PO 12.2 mg/kg, individual mice, 12.2 mg/kg
[4] = female, Balb/C, mouse, plasma, po, 12.2 mg/kg
[5] = female, Balb/C, mouse, plasma, sc, 12.2 mg/kg

## CC(C)[C@@H]1C(=O)N[C@@H](Cc2ccccc2)C(=O)N2CCC[C@H]2C(=O)N(C)[C@H](Cc2ccccc2)C(=O)N[C@H](C)C(=O)N2CCC[C@H]2C(=O)N1C (single isomer, unassigned) [Design D6.8.p1, *faP*vFP]
[1]
  Papp: 3.47 ×10⁻⁶ cm/s

## CC(C)C[C@H]1C(=O)N2CCC[C@@H]2C(=O)N[C@@H](Cc2ccccc2)C(=O)N2CCC[C@H]2C(=O)N[C@H](C(C)C)C(=O)N[C@H](Cc2ccccc2)C(=O)N1C (single isomer, unassigned) [Design D6.9.p1, vf*LpFP]
[1]
  Papp: 5.29 ×10⁻⁶ cm/s

## CC(C)C[C@H]1NC(=O)[C@H]2CCCN2C(=O)[C@@H]2CCCN2C(=O)[C@@H](Cc2ccccc2)NC(=O)[C@@H](C(C)C)NC(=O)[C@H](CC(C)C)N(C)C(=O)[C@@H](Cc2ccccc2)NC1=O (single isomer, unassigned) [Design D7.7.p2, Pplf*Lvf]
[1]
  Papp: 9.06 ×10⁻⁶ cm/s

## CC[C@H](C)[C@@H]1NC(=O)[C@H](Cc2ccccc2)NC(=O)[C@H]2CCCN2C(=O)[C@H]([C@@H](C)CC)NC(=O)[C@H](C(C)C)NC(=O)[C@@H](C)NC(=O)[C@H]2CCCN2C1=O (single isomer, unassigned) [Design D7.8.p2, VIpFIpa]
[1]
  Papp: 4.92 ×10⁻⁶ cm/s

## CC(C)C[C@@H]1NC(=O)[C@@H](C(C)C)NC(=O)[C@H](CC(C)C)N(C)C(=O)[C@H]2CCCN2C(=O)[C@@H](C(C)C)NC(=O)[C@H]2CCCN2C(=O)[C@@H](C(C)C)NC(=O)[C@@H](Cc2ccccc2)N(C)C(=O)[C@H](CC(C)C)N(C)C1=O (single isomer, unassigned) [Design D9.8.p2, *LvL*L*fvpvp]
[1]
  Papp: 0.255 ×10⁻⁶ cm/s

## CC[C@H](C)[C@@H]1NC(=O)[C@@H](CC(C)C)NC(=O)[C@H](CC(C)C)N(C)C(=O)[C@H](Cc2ccccc2)NC(=O)CN(C)C(=O)[C@@H]2CCCN2C(=O)[C@H](C(C)C)NC(=O)[C@H](Cc2ccccc2)N(C)C(=O)[C@H]2CCCN2C(=O)[C@H](CC(C)C)NC1=O (single isomer, unassigned) [Design D10.1.p1, lILp*FVP*GF*L]
[1]
  Papp: 3.92 ×10⁻⁶ cm/s

## CC(C)C[C@@H]1NC(=O)[C@H](Cc2ccccc2)NC(=O)[C@@H](CC(C)C)NC(=O)[C@H]2CCCN2C(=O)[C@H](C(C)C)NC(=O)[C@@H](CC(C)C)NC(=O)[C@H]2CCCN2C(=O)[C@@H]2CCCN2C1=O [Design D8.5, FLPplVpl] (cyclo(FLP[dP][dL]V[dP][dL]))
[1]
  Papp: 6.31 ×10⁻⁶ cm/s

## CC[C@H](C)[C@@H]1NC(=O)[C@@H](C)N(C)C(=O)[C@H]2CCCN2C(=O)[C@H]2CCCN2C(=O)[C@H](Cc2ccccc2)NC(=O)[C@@H](CC(C)C)NC(=O)[C@@H](CC(C)C)N(C)C(=O)[C@@H]2CCCN2C1=O [Design D8.17, P*llFpp*aI] (cyclo(F[dP][dP][dNMeA]IP[dNMeL][dL]))
[1]
  Papp: 0.95 ×10⁻⁶ cm/s

## CC(C)C[C@H]1NC(=O)[C@H]2CCCN2C(=O)[C@H](CC(C)C)N(C)C(=O)[C@@H](C)N(C)C(=O)[C@@H](Cc2ccccc2)NC(=O)[C@@H](C(C)C)NC(=O)[C@H]2CCCN2C(=O)[C@@H](CC(C)C)NC1=O [Design D8.19, f*a*Lpllpv] (cyclo([NMeL][dP][dL][dL][dP][dV][dF][dNMeA]))
[1]
  Papp: 0.626 ×10⁻⁶ cm/s

## CC[C@H](C)[C@@H]1NC(=O)[C@H]2CCCN2C(=O)[C@@H]2CCCN2C(=O)[C@@H](C(C)C)NC(=O)[C@@H](C)N(C)C(=O)[C@H](C)N(C)C(=O)[C@@H](CC(C)C)N(C)C(=O)[C@@H](C(C)C)NC1=O [Design D8.26, v*l*A*avPpI] (cyclo(I[dV][dNMeL][NMeA][dNMeA][dV]P[dP]))
[1]
  Papp: 0.544 ×10⁻⁶ cm/s

## CC[C@H](C)[C@@H]1NC(=O)[C@H](CC(C)C)N(C)C(=O)[C@H]2CCCN2C(=O)[C@H]2CCCN2C(=O)[C@H](Cc2ccccc2)NC(=O)[C@@H](CC(C)C)NC(=O)[C@H]2CCCN2C(=O)[C@@H]2CCCN2C1=O [Design D8.27, Fpp*LIPpl] (cyclo(F[dP][dP][NMeL]IP[dP][dL]))
[1]
  Papp: 0.315 ×10⁻⁶ cm/s

## CSCC[C@@H]1NC(=O)[C@@H]2CCCN2C(=O)[C@@H](C(C)C)NC(=O)[C@@H](C)N(C)C(=O)[C@@H](CC(C)C)NC(=O)[C@@H](CC(C)C)NC(=O)[C@@H]2CCCN2C(=O)[C@H]2CCCN2C1=O [Design D8.29, MpPll*avP] (cyclo([dL][dL][dNMeA][dV]PM[dP]P))
[1]
  Papp: 0.236 ×10⁻⁶ cm/s

## CC(C)C[C@@H]1C(=O)N[C@H](CC(C)C)C(=O)N2CCC[C@@H]2C(=O)N2CCC[C@@H]2C(=O)N(C)[C@@H](CC(C)C)C(=O)N[C@H](CC(C)C)C(=O)N2CCC[C@@H]2C(=O)N2CCC[C@H]2C(=O)N1C [Design D8.32, pp*LlpP*ll] (cyclo([dNMeL][dL][dP][dP][NMeL][dL][dP]P))
[1]
  Papp: 5.23 ×10⁻⁶ cm/s

## CC[C@H](C)[C@@H]1NC(=O)[C@@H](CC(C)C)NC(=O)[C@H](CC(C)C)N(C)C(=O)[C@H](Cc2ccccc2)NC(=O)CN(C)C(=O)[C@@H]2CCCN2C(=O)[C@H](C(C)C)NC(=O)[C@H](Cc2ccccc2)N(C)C(=O)[C@H]2CCCN2C(=O)[C@H](CC(C)C)NC1=O [Design D10.1, lILp*FVP*GF*L]
[2]; IV ([…] per Table 12), mean ±
  Half-life T1/2: 1.123 ± 0.113 h
  Volume of distribution @ steady state VSS: 0.25 ± 0.08 L/kg
  Volume of distribution during elimination phase VZ: 0.32 ± 0.07 L/kg
[2]; PO 12.2 mg/kg, 15 min, AVG
  Plasma level: 2.58 µM
[2]; PO 12.2 mg/kg, 15 min, individual mice, 12.2 mg/kg
  Plasma level: 2.22 µM and 3.26 µM and 2.26 µM
[2]; PO 12.2 mg/kg, 30 min, AVG
  Plasma level: 2.92 µM
[2]; PO 12.2 mg/kg, 30 min, individual mice, 12.2 mg/kg
  Plasma level: 2.49 µM and 3.64 µM and 2.64 µM
[2]; PO 12.2 mg/kg, 60 min, AVG
  Plasma level: 1.78 µM
[2]; PO 12.2 mg/kg, 60 min, individual mice, 12.2 mg/kg
  Plasma level: 1.57 µM and 2.14 µM and 1.64 µM
[2]; PO 12.2 mg/kg, 120 min, AVG
  Plasma level: 0.72 µM
[2]; PO 12.2 mg/kg, 120 min, individual mice, 12.2 mg/kg
  Plasma level: 0.54 µM and 0.8 µM and 0.81 µM
[2]; PO 12.2 mg/kg, 240 min, AVG
  Plasma level: 0.16 µM
[2]; PO 12.2 mg/kg, 240 min, individual mice, 12.2 mg/kg
  Plasma level: 0.13 µM and 0.18 µM and 0.17 µM
[2]; PO 12.2 mg/kg, 360 min, AVG
  Plasma level: 0.07 µM
[2]; PO 12.2 mg/kg, 360 min, individual mice, 12.2 mg/kg
  Plasma level: 0 μM and 0.1 μM (2×)
[2]; PO 12.2 mg/kg, 1440 min, AVG
  Plasma level: 0 µM
[2]; PO 12.2 mg/kg, 1440 min, individual mice
  Plasma level: 0 µM
[2]; PO 12.2 mg/kg, AVG
  AUC0-t: 270.4 µmol·min/L
  AUC0-∞: 279.94 µmol·min/L
  CI/F: 0.000785 L/min
  Cmax: 2920 nM
[2]; PO 12.2 mg/kg, individual mice
  Tmax: 0.5 h
[2]; [3]
  AUC0-t: 216.96 µmol·min/L and 327.78 µmol·min/L and 266.45 µmol·min/L
  AUC0-∞: 226.62 µmol·min/L and 337.03 µmol·min/L and 276.18 µmol·min/L
  CI/F: 0.000944 L/min and 0.000635 L/min and 0.000775 L/min
  Cmax: 2490 nM and 3640 nM and 2640 nM
  T1/2: 0.8313 h and 1.051 h and 1.132 h
[2]; PO (12.2 mg/kg per Table 10), mean
  Apparent clearance CI/F: 0.000785 L/min
[2]; PO (12.2 mg/kg per Table 10), mean ±
  Half-life T1/2: 1.005 ± 0.156 h
[2]; PO, IV dosing as reference, mean ±
  Oral bioavailability F: 7.48 ± 1.79%
[2]; SQ 12.2 mg/kg, 15 min, AVG
  Plasma level: 2.53 µM
[2]; SQ 12.2 mg/kg, 15 min, individual mice
  Plasma level: 1.39 µM and 2.44 µM and 3.75 µM
[2]; SQ 12.2 mg/kg, 30 min, AVG
  Plasma level: 3.55 µM
[2]; SQ 12.2 mg/kg, 30 min, individual mice
  Plasma level: 1.81 µM and 3.69 µM and 5.15 µM
[2]; SQ 12.2 mg/kg, 60 min, AVG
  Plasma level: 3.93 µM
[2]; SQ 12.2 mg/kg, 60 min, individual mice
  Plasma level: 1.87 µM and 4.88 µM and 5.03 µM
[2]; SQ 12.2 mg/kg, 360 min, AVG
  Plasma level: 2.29 µM
[2]; SQ 12.2 mg/kg, 360 min, individual mice
  Plasma level: 2.4 µM and 2.19 µM
[2]; SQ 12.2 mg/kg, 1440 min, AVG
  Plasma level: 0.01 µM
[2]; SQ 12.2 mg/kg, 1440 min, individual mice
  Plasma level: 0 μM (2×) and 0.03 μM
[2]; SQ 12.2 mg/kg, AVG
  AUC0-t: 1879.54 µmol·min/L
  AUC0-∞: 2867.17 µmol·min/L
  CI/F: 7.96e-05 L/min
  Cmax: 4140 nM
  T1/2: 3.7563 h
  Tmax: 2.5 h
[2]; SQ 12.2 mg/kg, individual mice
  AUC0-t: 730.93 µmol·min/L and 3578.6 µmol·min/L and 1329.09 µmol·min/L
  AUC0-∞: 3585.94 µmol·min/L and 2148.41 µmol·min/L
  CI/F: 5.97e-05 L/min and 9.96e-05 L/min
  Cmax: 2400 nM and 4880 nM and 5150 nM
  T1/2: 3.1823 h and 4.3302 h
[2]; [4]
  level at time molar at 0.25 h: 2580 ± 590 nM
  level at time molar at 0.5 h: 2920 ± 630 nM
  level at time molar at 1 h: 1780 ± 310 nM
  level at time molar at 2 h: 720 ± 150 nM
  level at time molar at 4 h: 160 ± 30 nM
  level at time molar at 6 h: 70 ± 60 nM
[2]; [5]
  CL/F: 0.0796 mL/min
  level at time molar at 0.25 h: 2530 ± 1180 nM
  level at time molar at 0.5 h: 3550 ± 1670 nM
  level at time molar at 1 h: 3930 ± 1780 nM
  level at time molar at 6 h: 2290 ± 150 nM
  level at time molar at 24 h: 10 ± 20 nM
[2]; mouse, in vivo
  bioavailability: 7.5 to 11%
[2]; mouse, in vivo, sc, 12.2 mg/kg
  Cmax: 4140 ± 1510 nM
  Tmax: 2.5 h
  half-life: 3.76 ± 0.812 h

Source: US20260274895A1, “DE NOVO DESIGNED MEMBRANE-TRAVERSING AND ORALLY BIOAVAILABLE MACROCYCLES” (UNIVERSITY OF WASHINGTON, priority 2022, published 2026)
